From patent US10350240B2, “Lanthanum carbonate hydroxide, lanthanum oxycarbonate and methods of their manufacture and use” (Spectrum Pharmaceuticals, Inc., priority 2010, dated 2019)

Key:
[1] = Phosphate binding at buffered pH 4.5 in dissolution unit, ICP-OES (% reaction completion); settings: Renazorb-014 (LDOC), second block; 4.5 pH @30 min
Text: For each run, both the Renazorb-013 (LCH) and the Renazorb-014 (LDOC) were characterized. Renazorb-013 is important to characterize because its features (particularly physical features such as BET-Surface-Area, Particle Size Distribution, crystalline phase by XRD, bulk density) strongly impact the same critical features of Renazorb-014. The typical characterization suite of Renazorb-013 and Renazorb-014 includes BET-Surface-Area (BET-SA), Particle Size Distribution (PSD), crystalline phase by XRD, bulk density, chloride content, lanthanum content, carbon content. On top of this Renazorb-014 is tested for phosphate binding performance (4.5 pH @30 min). Assays such as La, C, Cl are typically fairly consistent and not under scrutiny.
The following procedure may be used to determine the phosphate binding kinetics/capacity in solutions at a buffered pH=4.5 for lanthanum dioxycarbonate.
Briefly, a heated, acetate buffered acidic solution, adjusted to a known pH and containing a known amount of phosphate is stirred constantly throughout the test in a dissolution unit. To this stirred solution is added a known amount of lanthanum compound at time=0. […] All samples are diluted in the proper matrix and analyzed for phosphorus using an Inductively Coupled Plasma instrument equipped with an Optical Emission spectrophotometer detector (ICP-OES). […]

[2] = Laser particle size (Coulter LS230), aggregate D10/D50/D90 by volume; format: physicochemical; settings: Renazorb-014 (LDOC), second block
Text: Aggregate size as described herein is either determined by scanning electron microscopy (SEM) or laser diffraction on a Coulter LS230. […] But these appear more aggregated.
Laser particle size data can be produced using, for example, a LS230 Laser Particle Size Analyzer manufactured by Coulter.
Average the runs using the LS230 software and have the software calculate the desired volume D results (i.e. for D1, D10, D50, D90, and D99).
The Refractive Index (RI) of a solid is required to perform an accurate laser PSD analysis for particles under 1 μm. The RI of the test materials were not listed in literature at the time this method was developed. […] Therefore an RI of 2.1 was chosen.

[3] = Bulk density; format: physicochemical; settings: Renazorb-014 (LDOC), second block
Description: Bulk density in accordance with the invention can be determined by standard methods.
Graduated Cylinder Tare Weight was determined to be 225 g. 75 grams of sample was sieved into the graduated cylinder. The Gross Weight was determined to be 299.4 g. The volume of this sample was measured to be 141 mL. Thus, the Bulk Density of the powder is: Bulk Density (g/cc)=(299.4−225)/141=74.4/141=0.5277 g/cc Rounding this value to two decimal places gives a final reported value of 0.53 g/cc. 9.2 RSD=(R1−R2)×100/R1 where: RSD=Relative Standard Deviation (%) R1 & R2=Result of individual repeat (g/cc) 9.3 SR=R×100/V where: SR=Standard Recovery (%) R=Result for Reference Standard (g/cc) V=Historical average for standard (g/cc)

[4] = BET surface area; format: physicochemical; settings: Renazorb-014 (LDOC), second block
Text: By “relatively greater” it is meant that if the processes of the '782 patent and those of the present invention were run under generally identical conditions but with, for example, ammonium carbonate or bicarbonate used instead of sodium carbonate, the surface area, as measured by BET or otherwise, of the LCH or lanthanum oxycarbonates of the present invention would be even higher than that resulting from the practice of the '782 patent. The ammonium carbonate process of the present invention should yield BET surface areas (SA) in the 1 to 100 m^2/g range for LCH. […] To this end, as used herein “relatively greater BET surface area” refers to the greater BET surface area of the LDOC compound of the present invention when compared to the respective compound in U.S. Pat. No. 7,588,782 when made using similar ingredients, and under similar conditions but using the process described in that patent. As noted above, both processes are capable of producing very fine particles/high surface area. Again without wishing to be bound by any particular theory of operation, it may be that the greater porosity of the materials resulting from the present invention may effectively increase the overall surface area (or more reactive surfaces) allowing for, inter alia, improved binding kinetics. This is predicated on the porosity of individual or primary particles, not aggregates. Thus, it is believed that the primary particles of the invention provide relatively greater porosity than would be measured for particles made in accordance with the '782 patent. […] Furthermore, “porosity” as used herein means cumulative adsorption pore volume determined using a static pressure surface area analyzer with nitrogen as the adsorbate and calculating the pore size by The Barrett, Joyner, and Halenda (BJH) method (Barrett E. P., Loyner L. G. and Halenda P. P., The determination of pore volume and area distributions in porous substances. I. Computations from nitrogen isotherms, J. Am. Chem. Soc. 73 (1951) pp. 373-380).
As contemplated herein, BET surface area of the lanthanum compounds disclosed herein may be determined as provided in U.S. Pat. No. 7,588,782.

O=C([O-])[O-].[La+3].[La+3].[O-2].[O-2] [Batch 110508, lanthanum dioxycarbonate]
Po4 binding @4.5 pH (rxn comp. %) [1]: 92% | D10 Sonicated SOP-QC-GMP-2402 [2]: 6.6 um | D50 Sonicated SOP-QC-GMP-2402 [2]: 50 um | D90 Sonicated SOP-QC-GMP-2402 [2]: 151 um | Bulk Density [3]: 0.56 g/cc | Surface Area [4]: 16.7 m^2/g
